Measurements reported in PubChem BioAssay (NCI).
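Step 1: Grow cells in 96-well plates. Step 2: Expose to compound for 48 hours at 5 concentrations. Step 3: Interpolate endpoints linearly; if unreached, use highest concentration. The concentration for full growth arrest is given as TGI.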

Legend:
Assay in all cases: NCI tumour cell line growth inhibition, 48 h
[1] = tested on: KM12 colon
[2] = tested on: PC-3 prostate
[3] = tested on: SR leukemia
[4] = tested on: HS 578T breast
[5] = tested on: NCI-H522 lung
[6] = tested on: MDA-N
[7] = tested on: EKVX NSCLC
[8] = tested on: LOX IMVI melanoma
[9] = tested on: K-562 leukemia
[10] = tested on: RXF 393 renal
[11] = tested on: IGROV1 ovarian
[12] = tested on: UACC-62 melanoma
[13] = tested on: MOLT-4 leukemia
[14] = tested on: UO-31 renal
[15] = tested on: NCI-H23 lung
[16] = tested on: SN12C renal
[17] = tested on: NCI/ADR-RES ovarian
[18] = tested on: T-47D breast
[19] = tested on: SNB-75 CNS
[20] = tested on: NCI-H460 lung
[21] = tested on: CCRF-CEM leukemia
[22] = tested on: COLO 205 colon
[23] = tested on: SNB-19 CNS
[24] = tested on: HL-60(TB) leukemia
[25] = tested on: A498 renal
[26] = tested on: SK-MEL-28 melanoma
[27] = tested on: ACHN renal
[28] = tested on: OVCAR-3 ovarian
[29] = tested on: HCT-15 colon
[30] = tested on: TK-10 renal
[31] = tested on: RPMI-8226 leukemia
[32] = tested on: MDA-MB-435
[33] = tested on: A549 NSCLC
[34] = tested on: UACC-257 melanoma
[35] = tested on: HT29 colon
[36] = tested on: HCT-116 colon
[37] = tested on: U251 CNS
[38] = tested on: HOP-92 NSCLC
[39] = tested on: OVCAR-8 ovarian
[40] = tested on: SK-MEL-2 melanoma
[41] = tested on: SF-539 CNS
[42] = tested on: 786-0 renal
[43] = tested on: OVCAR-4 ovarian
[44] = tested on: BT-549 breast
[45] = tested on: MALME-3M melanoma
[46] = tested on: SF-268 CNS
[47] = tested on: M14 melanoma
[48] = tested on: SK-MEL-5 melanoma
[49] = tested on: SW-620 colon
[50] = tested on: SK-OV-3 ovarian
[51] = tested on: SF-295 CNS
[52] = tested on: MCF7 breast
[53] = tested on: MDA-MB-231 breast
[54] = tested on: DU-145 prostate
[55] = tested on: CAKI-1 renal
[56] = tested on: OVCAR-5 ovarian
[57] = tested on: HOP-62 NSCLC
[58] = tested on: NCI-H226 lung

Measured: TGI

O=C(O)/C=C(/C(=O)O)C12CCN3CC4=CCOC5CC(=O)NC1C5C4CC32 (centres undefined)
> 100 µM: all assays above

OC(c1nc2ccccc2[nH]1)C(O)C(O)C(O)c1nc2ccccc2[nH]1 (centres undefined)
not listed: [15] | [21]
> 100 µM: all other assays above
